We go through 23 compounds from patent publication US7511047B2, “Kinase inhibitors” (Cytopia Research Pty Ltd, priority 2002, dated 2009).

Common to all, as to assay type: biochemical
The target of test [1] is kdr (Homo sapiens, UniProt P35968). The experiment in a line: kdr kinase assay (ELISA or Alphascreen). Conditions: capacity to inhibit 50% of activity at 50 μM; read-out: kdr inhibitory activity. As to the method:
(§1) For screening purposes, compounds were diluted in 96 well plates at a concentration of 20 μM. Plates were warmed at 37° C. for 30 minutes before assay.
(§2) Kinase assays were performed either in a 96 well capture-based ELISA assay or in 384 well Optiplates (Packard) using an Alphascreen Protein Tyrosine Kinase kit. In either casse using approximately 1.5 μg of affinity purified PTK domain in the presence of 50 mM HEPES, pH 7.5, 10 mM MgCl2, 150 mM NaCl and 10 μM-1 mM ATP. The biotinylated substrate biotin-EGPWLEEEEEAYGWMDF-NH2 (SEQ ID NO:9) (final concentration 5 μM) was used as substrate. In the ELISA assay tyrosine phosphorylation was quantitated following transfer to an avidin coated ELISA plate using peroxidase-linked anti-phospho-tyrosine antibody PY20. In the Alphascreen assay, Alphascreen phosphotyrosine acceptor beads followed by streptavidin donor beads were added under subdued light. The ELISA plates were read on a BMG Fluorostar, the Alphascreen plates were read on a Packard Fusion Alpha. Inhibitors were added to the assays fifteen minutes prior to the addition of ATP. Inhibitors were added in aqueous DMSO, with DMSO concentrations never exceeding 1%.
For orientation: ELISA stands for enzyme-linked immunosorbent assay.

In test [2] the target is T1, Jak2 (Homo sapiens, UniProt O60674).
T1 construct: The kinase domain of humanJAK2 was amplified from U937mRNA; His tag (from pFastBac HTc vector) (N); made in house; host or cells: baculovirus; Sf9 insect cells for virus, High Five cells for large-scale production
T1 sequence (O60674 849-1124 limits assumed): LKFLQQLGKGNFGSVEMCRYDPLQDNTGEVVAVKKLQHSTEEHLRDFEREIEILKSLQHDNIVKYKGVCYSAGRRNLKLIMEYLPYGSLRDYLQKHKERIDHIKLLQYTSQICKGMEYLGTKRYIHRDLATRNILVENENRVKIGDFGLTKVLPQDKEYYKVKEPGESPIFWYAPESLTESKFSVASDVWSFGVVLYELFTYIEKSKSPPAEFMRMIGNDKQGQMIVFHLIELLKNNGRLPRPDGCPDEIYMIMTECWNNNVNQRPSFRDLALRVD
The experiment in a line: JAK2 kinase domain assay (ELISA or Alphascreen). Conditions: capacity to inhibit 50% of activity at 50 μM; read-out: Jak2 inhibitory activity. How it is done: as §1
• JAK1 PCR products were cloned into the pFastBac HTb expression vector (Gibco) via the Xho I and Kpn I sites. The JAK1 plasmid was then transformed into competent DH10Bac cells (Gibco), and the recombinant baculovirus produced prepared for transfection into Sf9 insect cells. JAK2 • The kinase domain of humanJAK2 was amplified from U937mRNA using the polymerase chain reaction with the following primers:
• JAK2 PCR products were cloned into the pFastBac HTc expression vector (Gibco) via the Sal I and Not I sites. The JAK2 plasmid was then transformed into competent DH10Bac cells (Gibco), and the recombinant baculovirus produced prepared for transfection into Sf9 insect cells. JAK3 • The kinase domain of humanJAK3 was amplified from U937mRNA using the polymerase chain reaction with the following primers: […]
(§3) Baculovirus preparations from each of the JAK family members were infected into five litres of High Five cells (Invitrogen) grown in High Five serum free medium (Invitrogen) to a cell density of approximately 1-2×10^6 cells/ml. Cells are infected with virus at a MOI of 0.8-3.0. Cells were harvested and lysed. JAK kinase domains were purified by affinity chromatography on a Probond (Invitrogen) nickel chelate affinity column.
as §2

The target in test [3] is T2, abl (Homo sapiens, UniProt P00519).
T2 sequence (P00519 242-493 limits assumed): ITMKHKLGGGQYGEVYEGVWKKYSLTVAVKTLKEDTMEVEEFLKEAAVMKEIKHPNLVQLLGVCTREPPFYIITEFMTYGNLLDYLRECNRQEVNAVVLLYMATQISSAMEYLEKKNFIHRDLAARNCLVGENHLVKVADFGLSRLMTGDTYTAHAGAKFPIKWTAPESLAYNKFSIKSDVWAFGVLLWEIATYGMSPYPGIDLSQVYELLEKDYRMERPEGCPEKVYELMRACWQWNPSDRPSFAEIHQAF
The experiment in a line: abl kinase assay (ELISA or Alphascreen). Conditions: capacity to inhibit 50% of activity at 50 μM; read-out: abl inhibitory activity. How it is done:
as §1, §2

The target of test [4] is T3, Jak3 (Homo sapiens, UniProt P52333).
T3 construct: The kinase domain of humanJAK3 was amplified from U937mRNA; His tag (from pFastBac HTb vector) (N); made in house; host or cells: baculovirus; Sf9 insect cells for virus, High Five cells for large-scale production
T3 sequence (P52333 822-1111 limits assumed): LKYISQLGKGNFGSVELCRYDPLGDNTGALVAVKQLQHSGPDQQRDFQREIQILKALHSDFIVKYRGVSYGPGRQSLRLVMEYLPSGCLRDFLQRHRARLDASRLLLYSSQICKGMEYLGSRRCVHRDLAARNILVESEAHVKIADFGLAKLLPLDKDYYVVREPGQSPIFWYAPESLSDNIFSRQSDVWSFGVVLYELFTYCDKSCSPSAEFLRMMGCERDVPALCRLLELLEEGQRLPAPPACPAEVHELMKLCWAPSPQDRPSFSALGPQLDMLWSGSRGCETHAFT
The experiment in a line: JAK3 kinase domain assay (ELISA or Alphascreen). Conditions: capacity to inhibit 50% of activity at 50 μM; read-out: Jak3 inhibitory activity. As to the method: as §1
• JAK2 PCR products were cloned into the pFastBac HTc expression vector (Gibco) via the Sal I and Not I sites. The JAK2 plasmid was then transformed into competent DH10Bac cells (Gibco), and the recombinant baculovirus produced prepared for transfection into Sf9 insect cells. JAK3 • The kinase domain of humanJAK3 was amplified from U937mRNA using the polymerase chain reaction with the following primers:
• JAK3 PCR products were cloned into the pFastBac HTb expression vector (Gibco) via the Xho I and Kpn I sites. The JAK3 plasmid was then transformed into competent DH10Bac cells (Gibco), and the recombinant baculovirus produced prepared for transfection into Sf9 insect cells. TYK2 • The kinase domain of humanTYK2 was amplified from A549 mRNA using the polymerase chain reaction with the following primers: […]
as §3, §2

The target in test [5] is hck (Homo sapiens, UniProt P08631). The experiment in a line: hck kinase assay (ELISA or Alphascreen). Conditions: capacity to inhibit 50% of activity at 50 μM; read-out: hck inhibitory activity. How it is done:
as §1, §2

Chain of kdr (P35968 834-1162 limits assumed, species assumed): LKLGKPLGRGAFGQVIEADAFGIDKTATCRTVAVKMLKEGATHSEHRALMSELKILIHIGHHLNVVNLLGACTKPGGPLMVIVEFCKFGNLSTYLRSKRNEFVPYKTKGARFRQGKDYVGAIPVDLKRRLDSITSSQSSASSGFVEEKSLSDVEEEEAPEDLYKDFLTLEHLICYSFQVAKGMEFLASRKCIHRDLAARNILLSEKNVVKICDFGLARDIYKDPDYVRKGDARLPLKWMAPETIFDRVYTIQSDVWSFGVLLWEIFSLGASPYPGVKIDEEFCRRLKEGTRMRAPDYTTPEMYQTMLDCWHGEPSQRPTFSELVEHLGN
Chain of hck (P08631 262-515 limits assumed, species assumed): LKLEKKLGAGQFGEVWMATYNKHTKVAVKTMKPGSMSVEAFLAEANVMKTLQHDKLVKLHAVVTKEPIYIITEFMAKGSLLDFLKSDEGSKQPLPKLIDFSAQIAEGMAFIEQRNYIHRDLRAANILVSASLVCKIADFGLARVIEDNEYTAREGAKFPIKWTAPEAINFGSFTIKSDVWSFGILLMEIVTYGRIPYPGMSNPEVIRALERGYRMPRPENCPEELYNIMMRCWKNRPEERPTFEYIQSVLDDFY

As for `Cc1nccn1-c1cncc(N[C@H](C)c2ccccc2)n1`, the inhibition at 50 µM is under 50% in test [1]; under 50% in test [2]; under 50% in test [3]; under 50% in test [4]; over 50% in test [5].
As for `C[C@H](Nc1cncc(-n2cnc3ccc(C(=O)N4CCOCC4)cc32)n1)c1ccccc1`, the inhibition at 50 µM in test [1] is over 50%; in test [2] it was under 50%; in test [3], over 50%; in test [4], under 50%; in test [5], over 50%.
On to `C[C@@H](Nc1cncc(-n2ccnc2)n1)c1ccccc1`, for which the inhibition at 50 µM is under 50% in test [1]; under 50% in test [2]; over 50% in test [3]; under 50% in test [4]; over 50% in test [5].
`C[C@@H](Nc1cncc(-n2cnc(-c3ccccc3)c2)n1)c1ccccc1`: the inhibition at 50 µM in test [1] was over 50%; in test [2] it was under 50%; in test [3] it was over 50%; in test [4] it was under 50%; in test [5], over 50%.
On to `CC(=O)Nc1ccc2ncn(-c3cncc(N[C@@H](C)c4ccccc4)n3)c2c1`, for which the inhibition at 50 µM was over 50% in test [1]; over 50% in test [2]; over 50% in test [3]; under 50% in test [4]; over 50% in test [5].
Take `C[C@H](Nc1cncc(-n2cnc3cc(NC(=O)c4ccccc4)ccc32)n1)c1ccccc1`: the inhibition at 50 µM was over 50% in test [1]; under 50% in test [2]; over 50% in test [3]; under 50% in test [4]; over 50% in test [5].
As for `C[C@H](Nc1cncc(-n2cnc3ccc(C(=O)N4CCN(C)CC4)cc32)n1)c1ccccc1`, the inhibition at 50 µM is under 50% in test [1]; under 50% in test [2]; under 50% in test [3]; under 50% in test [4]; over 50% in test [5].
Take `Fc1ccc(CNc2cncc(-n3ccnc3)n2)cc1`: the inhibition at 50 µM in test [1] was under 50%; in test [2], under 50%; in test [3] it was under 50%; in test [4] it was over 50%; in test [5] it was over 50%.
In the case of `C[C@H](Nc1cncc(-n2cnc3cc(C(=O)N4CCN(C)CC4)ccc32)n1)c1ccccc1`, the inhibition at 50 µM was over 50% in test [1]; under 50% in test [2]; over 50% in test [3]; under 50% in test [4]; over 50% in test [5].
Regarding `C[C@H](Nc1cncc(-n2cnc3cc(-c4ccncc4)ccc32)n1)c1ccccc1`, the inhibition at 50 µM in test [1] is over 50%; in test [2] it was over 50%; in test [3], over 50%; in test [4], under 50%; in test [5], over 50%.
`CCN(CC)Cc1ccc2ncn(-c3cncc(NC(C)c4ccc(F)cc4)n3)c2c1` (stereo not shown): the inhibition at 50 µM in test [1] was over 50%; in test [2], over 50%; in test [3], under 50%; in test [4] it was under 50%; in test [5], over 50%.
With `Cc1nc2ccccc2n1-c1cncc(N[C@@H](C)c2ccccc2)n1`, the inhibition at 50 µM in test [1], in test [2], in test [3], in test [4] and in test [5] was under 50% each time.
Take `C[C@H](Nc1cncc(-n2cnc3cc(C(=O)N4CCOCC4)ccc32)n1)c1ccccc1`: the inhibition at 50 µM in test [1] is over 50%; in test [2], under 50%; in test [3] it was over 50%; in test [4], under 50%; in test [5], over 50%.
On to `c1ccc(CNc2cncc(-n3ccnc3)n2)cc1`, for which the inhibition at 50 µM was under 50% in test [1]; under 50% in test [2]; over 50% in test [3]; under 50% in test [4]; over 50% in test [5].
As for `C[C@H](Nc1cncc(-n2cnc3ccc(CO)cc32)n1)c1ccccc1`, the inhibition at 50 µM is over 50% in test [1]; over 50% in test [2]; under 50% in test [3]; over 50% in test [4]; over 50% in test [5].
Take `C[C@H](Nc1cncc(-n2cnc3ccccc32)n1)c1ccccc1`: the inhibition at 50 µM in test [1] was over 50%; in test [2], over 50%; in test [3] it was over 50%; in test [4] it was under 50%; in test [5], over 50%.
Take `C[C@H](Nc1cncc(-n2cnc3ccc(NC(=O)c4ccccc4)cc32)n1)c1ccccc1`: the inhibition at 50 µM was over 50% in test [1]; under 50% in test [2]; over 50% in test [3]; under 50% in test [4]; over 50% in test [5].
Turning to `C[C@H](Nc1cncc(-n2cnc3cc(NC(=O)C4CCCN4)ccc32)n1)c1ccccc1` (stereo partly shown), the inhibition at 50 µM in test [1] was over 50%; in test [2], over 50%; in test [3] it was under 50%; in test [4], over 50%; in test [5], over 50%.
Regarding `Fc1ccc(CNc2cncc(-n3cnc4ccccc43)n2)cc1`, the inhibition at 50 µM in test [1] is under 50%; in test [2], over 50%; in test [3], over 50%; in test [4], under 50%; in test [5], over 50%.
Turning to `C[C@H](Nc1cncc(-n2cnc3ccc(NC(=O)C4CC4)cc32)n1)c1ccccc1`, the inhibition at 50 µM is over 50% in test [1]; under 50% in test [2]; over 50% in test [3]; under 50% in test [4]; over 50% in test [5].
Regarding `COCC(=O)Nc1ccc2c(c1)ncn2-c1cncc(N[C@@H](C)c2ccccc2)n1`, the inhibition at 50 µM in test [1] is over 50%; in test [2], under 50%; in test [3] it was over 50%; in test [4] it was under 50%; in test [5], over 50%.
For `C[C@H](Nc1cncc(-n2cnc3cc(CN4CCN(C)CC4)ccc32)n1)c1ccccc1`, the inhibition at 50 µM in test [1] was over 50%; in test [2], under 50%; in test [3], under 50%; in test [4], under 50%; in test [5], over 50%.
In the case of `C[C@H](Nc1cncc(-n2cnc3cc(NCc4cccnc4)ccc32)n1)c1ccccc1`, the inhibition at 50 µM in test [1], in test [2], in test [3], in test [4] and in test [5] was over 50% throughout.
